This is an account of results in US20250326772A1, “MRGPRX2 ANTAGONISTS, PHARMACEUTICAL COMPOSITION INCLUDING MRGPRX2 ANTAGONIST, AND METHOD OF TREATING MRGPRX2-MEDIATED DISEASE OR DISORDER” (KYORIN PHARMACEUTICAL CO., LTD., priority 2024, published 2025).

The assay addresses T1, MRGPRX2 (Homo sapiens, UniProt Q96LB1).
T1 sequence (Q96LB1 1-330): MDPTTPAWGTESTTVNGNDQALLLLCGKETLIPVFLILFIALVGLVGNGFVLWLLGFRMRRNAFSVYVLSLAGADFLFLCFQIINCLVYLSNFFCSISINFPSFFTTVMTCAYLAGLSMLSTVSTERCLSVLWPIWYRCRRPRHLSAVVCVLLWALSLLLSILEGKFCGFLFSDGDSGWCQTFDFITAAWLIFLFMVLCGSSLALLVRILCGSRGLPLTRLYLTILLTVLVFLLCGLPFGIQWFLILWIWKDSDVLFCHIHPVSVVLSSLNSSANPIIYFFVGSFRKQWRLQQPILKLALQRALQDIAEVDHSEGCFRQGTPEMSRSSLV
As to the kind of experiment: MRGPRX2 reporter cell assay (NFAT-RE luciferase, Substance P stimulation). The class given is cell-based. The conditions noted are these: U2OS cells stably transfected with MRGPRX2 and NFAT-RE luciferase reporter, Substance P at EC80. The method, then: MRGPRX2 Reporter Cell Assays U2OS cells (ATCC, Manassas, VA) were stably transfected with MRGPRX2 expression clones (GeneCopoeia, Rockville, MD) and the pGL4.30 [luc2P/NFAT-RE/Hygro] reporter plasmid (Promega, Madison, WI). Clonal cells were maintained in Growth Media (McCoy's 5A, 10% FBS, 495 μg/ml hygromycin, 2 μg/ml puromycin, 100 units/ml penicillin, and 100 ug/ml streptomycin). The day before assay, cells were plated to white 384-well microplates at 3000 (MRGPRX2) cells/well in 10 ul Assay Media (McCoy's 5A, 2% charcoal dextran stripped FBS, 100 units/ml penicillin, and 100 ug/ml streptomycin) (Gibco, Thermo Fisher) and allowed to adhere overnight. The following day, serially diluted compound stocks were added directly to the cells (final DMSO concentration of 0.5%) and pre-incubated for 30 minutes at 37° C., 5% CO2. The final concentration of Substance P (Tocris, Minneapolis, MN, or PEPTIDE INSTITUTE, Osaka, Japan) corresponding to EC80 was added to stimulate the (MRGPRX2) cells. Cells were returned to the incubator for 6 hrs, after which 5 ul of ONE-GLO substrate (Promega) was added. Luminescence was read within 15 minutes (BioTek, Winooski, VT or infinite M1000Pro, Tecan Japan, Kanagawa, Japan). Percent inhibition for each test compound was calculated using the formula: […] where: • A=the luminescence count of the “test compound” well • B=the median luminescence count of the “Vehicle (0.5% DMSO)” wells • C═the median luminescence count of the “Vehicle (0.5% DMSO)+5 uM of substance P” wells The mean percent inhibition of each concentration of “test compound” was used to generate dose-response curves. IC50 values were calculated using a four-parameter logistic fit to the data using GraphPad Prism software. • +++: […]

For orientation: IC50 means the point on the concentration scale where inhibition reaches its midpoint. A low value points to greater potency. As to `CCn1cc(-c2c(-c3c(C(F)F)nn4c3OCCC4)[nH]c3ncccc23)c(OC(F)F)n1` [EX. 400, 3-[3-[3-(difluoromethoxy)-1-ethyl-pyrazol-4-yl]-1H-pyrrolo[2,3-b]pyridin-2-yl]-2-(difluoromethyl)-6,7-dihydro-5H-pyrazolo[5,1-b] [1,3]oxazine], the half-maximal inhibitory concentration (IC50) (class symbols) lay within 10 to 100 nM.

`Cn1cc(-c2c(-c3c(C(F)F)nn4c3OCCC4)[nH]c3ncccc23)c(C#N)n1` [EX. 401]: the IC50 (class symbols) was less than 10 nM.

Where the note is “class symbols”, `FC(F)Oc1nscc1-c1c(-c2c(C(F)F)nn3c2OCCC3)[nH]c2ncccc12` [EX. 402] gave an IC50 of less than 10 nM.

For the setting “class symbols”, `N#Cc1nscc1-c1c(-c2c(C(F)F)nn3c2OCCC3)[nH]c2ncccc12` [EX. 403] yielded an IC50 of less than 10 nM.

On to `COc1nscc1-c1c(-c2c(C(F)F)nn3c2OCCC3)[nH]c2ncccc12` [EX. 404], for which the IC50 (class symbols) was in the range of 10 to 100 nM.

`FC(F)Oc1n[nH]cc1-c1c(-c2c(C(F)F)nn3c2OCCC3)[nH]c2ncccc12` [EX. 406] showed an IC50 (class symbols) of 100 to 1000 nM.

The compound `FC(F)Oc1nocc1-c1c(-c2c(C(F)F)nn3c2OCCC3)[nH]c2ncccc12` [EX. 407] showed an IC50 (class symbols) of 10 to 100 nM.

For the setting “class symbols”, `N#Cc1cnccc1-c1c(-c2c(C(F)F)nn3c2OCCC3)[nH]c2ncccc12` [EX. 408] came in with an IC50 of less than 10 nM.

The compound `N#Cc1nccnc1-c1c(-c2c(C(F)F)nn3c2OCCC3)[nH]c2ncccc12` [EX. 409] displayed an IC50 (class symbols) of 100 to 1000 nM.

For `FC(F)Oc1ncccc1-c1c(-c2c(C(F)F)nn3c2OCCC3)[nH]c2ncccc12` [EX. 410], the half-maximal inhibitory concentration (IC50) (class symbols) was less than 10 nM.

`N#Cc1ncccc1-c1c(-c2c(C(F)F)nn3c2OCCC3)[nH]c2ncccc12` [EX. 411]: the IC50 (class symbols) was in the range of 10 to 100 nM.

In turn, `FC(F)c1nn2c(c1-c1[nH]c3ncccc3c1-c1ccncc1C(F)(F)F)OCCC2` [EX. 412] returned an IC50 (class symbols) of 10 to 100 nM.

Compound `N#Cc1cccnc1-c1c(-c2c(C(F)F)nn3c2OCCC3)[nH]c2ncccc12` [EX. 413] showed an IC50 (class symbols) of 100 to 1000 nM.

`FC(F)c1nn2c(c1-c1[nH]c3ncccc3c1-c1cnsc1C(F)F)OCCC2` [EX. 416]: for the setting “class symbols”, the half-maximal inhibitory concentration (IC50) lay within 10 to 100 nM.

Regarding `Cn1cc(-c2c(-c3c(C4CC4)nn4c3OCCC4)[nH]c3ncccc23)c(OC(F)F)n1` [EX. 420], the IC50 (class symbols) was less than 10 nM.

Under “class symbols”, `Cc1nn2c(c1-c1[nH]c3ncccc3c1-c1cn(C)nc1OC(F)F)OCCC2` [EX. 421, 3-(3-(3-(difluoromethoxy)-1-methyl-1H-pyrazol-4-yl)-1H-pyrrolo[2,3-b]pyridin-2-yl)-2-methyl-6,7-dihydro-5H-pyrazolo[5,1-b] [1,3]oxazine] returned an IC50 of less than 10 nM.

Compound `CCc1nn2c(c1-c1[nH]c3ncccc3c1-c1cn(C)nc1OC(F)F)OCCC2` [EX. 422] displayed an IC50 of 5.8 nM. This compound yielded an IC50 (class symbols) of less than 10 nM.

`Cn1cc(-c2c(-c3c(CF)nn4c3OCCC4)[nH]c3ncccc23)c(OC(F)F)n1` [EX. 423]: the IC50 (class symbols) was less than 10 nM.

For the setting “class symbols”, `N#Cc1ncccc1-c1c(-c2c(C(F)F)nn3c2OC[C@@H](F)C3)[nH]c2ncccc12` [EX. 424] yielded an IC50 of less than 10 nM.

Consider `N[C@@H]1COc2c(-c3[nH]c4ncccc4c3-c3csnc3OC(F)F)c(C(F)F)nn2C1` [EX. 425], for which the IC50 (class symbols) is less than 10 nM.

Compound `Cn1cc(-c2c(-c3c(C(F)F)nn4c3OCC(O)C4)[nH]c3ncccc23)c(OC(F)F)n1` (stereo not shown) [EX. 426, 3-(3-(3-(difluoromethoxy)-1-methyl-1H-pyrazol-4-yl)-1H-pyrrolo[2,3-b]pyridin-2-yl)-2-(difluoromethyl)-6,7-dihydro-5H-pyrazolo[5,1-b] [1,3]oxazin-6-ol] showed an IC50 (class symbols) of less than 10 nM.

The compound `Cn1cc(-c2c(-c3c(C(F)F)nn4c3OC[C@@H](O)C4)[nH]c3ncsc23)c(OC(F)F)n1` [EX. 427, (S)-3-(6-(3-(difluoromethoxy)-1-methyl-1H-pyrazol-4-yl)-4H-pyrrolo[2,3-d]thiazol-5-yl)-2-(difluoromethyl)-6,7-dihydro-5H-pyrazolo[5,1-b] [1,3]oxazin-6-ol] yielded an IC50 (class symbols) of less than 10 nM.

`Cn1cc(-c2c(-c3c(C(F)F)nn4c3OC[C@@H](N)C4)[nH]c3ncsc23)c(OC(F)F)n1` [EX. 428, (S)-3-(6-(3-(difluoromethoxy)-1-methyl-1H-pyrazol-4-yl)-4H-pyrrolo[2,3-d]thiazol-5-yl)-2-(difluoromethyl)-6,7-dihydro-5H-pyrazolo[5,1-b] [1,3]oxazin-6-amine] displayed an IC50 (class symbols) of less than 10 nM.

In the case of `COc1ncccc1-c1c(-c2c(C(F)F)nn3c2OCCC3)[nH]c2ncccc12` [EX. 429, 2-(difluoromethyl)-3-(3-(2-methoxypyridin-3-yl)-1H-pyrrolo[2,3-b]pyridin-2-yl)-6,7-dihydro-5H-pyrazolo[5,1-b] [1,3]oxazine], the IC50 (class symbols) was less than 10 nM.

As for `FC(F)c1nn2c(c1-c1[nH]c3ncccc3c1C1=CCCCC1)OCCC2` [EX. 430], for the setting “class symbols”, the IC50 was less than 10 nM.

Consider `COc1ncc(F)cc1-c1c(-c2c(C(F)F)nn3c2OCCC3)[nH]c2ncccc12` [EX. 431], for which, for the setting “class symbols”, the IC50 is less than 10 nM.

Regarding `Cn1cc(-c2c(-c3c(C(F)F)nn4c3OCC4)[nH]c3ncccc23)c(OC(F)F)n1` [EX. 432], the IC50 (class symbols) was less than 10 nM.

In turn, `Cc1cc(-c2c(-c3c(C(F)F)nn4c3OCC4)[nH]c3ncccc23)c(C#N)s1` [EX. 433] registered an IC50 (class symbols) of less than 10 nM.

Where the note is “class symbols”, `Cn1cc(-c2c(-c3c(C(F)F)nn4c3OC[C@@H](F)C4)[nH]c3ncccc23)c(OC(F)F)n1` [EX. 434] displayed an IC50 of less than 10 nM.

`CO[C@]1(C)COc2c(-c3[nH]c4ncccc4c3-c3cn(C)nc3OC(F)F)c(C(F)F)nn2C1` [EX. 435] gave an IC50 of 4.1 nM. The same compound came in with an IC50 (class symbols) of less than 10 nM.

Turning to `Cc1cc(-c2c(-c3c(C(F)F)nn4c3OC[C@@H](F)C4)[nH]c3ncccc23)c(Cl)s1` [EX. 436], the IC50 (class symbols) is less than 10 nM.

Compound `FC(F)Oc1ncccc1-c1c(-c2c(C(F)F)nn3c2OC[C@@H](F)C3)[nH]c2ncccc12` [EX. 437] registered an IC50 (class symbols) of less than 10 nM.

On to `C[C@@]1(O)COc2c(-c3[nH]c4ncccc4c3-c3cccnc3OC(F)F)c(C(F)F)nn2C1` [EX. 438], for which the IC50 (class symbols) is less than 10 nM.

With `CO[C@]1(C)COc2c(-c3[nH]c4ncccc4c3-c3cccnc3OC(F)F)c(C(F)F)nn2C1` [EX. 439], the IC50 (class symbols) is less than 10 nM.

Regarding `C[C@@]1(O)COc2c(-c3[nH]c4ncccc4c3-c3cccnc3OC(F)F)c(C3CC3)nn2C1` [EX. 440], under “class symbols”, the IC50 is less than 10 nM.

As for `FC(F)Oc1ncccc1-c1c(-c2c(C(F)F)nn3c2OCCCC3)[nH]c2ncccc12` [EX. 441], the IC50 (class symbols) was less than 10 nM.

The compound `FC(F)Oc1ncccc1-c1c(-c2c(C(F)F)nn3c2OCC3)[nH]c2ncccc12` [EX. 442] displayed an IC50 (class symbols) of less than 10 nM.

`FC(F)Oc1ccccc1-c1c(-c2c(C(F)F)nn3c2OC[C@@H](F)C3)[nH]c2ncccc12` [EX. 444]: the IC50 (class symbols) is less than 10 nM.

For `FC(F)c1nn2c(c1-c1[nH]c3ncccc3c1-c1ccccc1)OC[C@@H](F)C2` [EX. 445], for the setting “class symbols”, the IC50 was less than 10 nM.

In the case of `COc1ncccc1-c1c(-c2c(C(F)F)nn3c2OC[C@@H](F)C3)[nH]c2ncccc12` [EX. 446], where the note is “class symbols”, the IC50 is less than 10 nM.

`Fc1ccc(-c2c(-c3c(C(F)F)nn4c3OC[C@@H](F)C4)[nH]c3ncccc23)c(OC(F)F)c1` [EX. 447]: where the note is “class symbols”, the IC50 was less than 10 nM.

`Cn1cc(-c2c(-c3c(C(F)F)nn4c3OC[C@@H](F)C4)[nH]c3ncccc23)c(C#N)n1` [EX. 449] had an IC50 of 2.6 nM. This compound also registered an IC50 (class symbols) of less than 10 nM.

`Cc1cc(-c2c(-c3c(C(F)F)nn4c3OC[C@@H](F)C4)[nH]c3ncccc23)c(C#N)s1` [EX. 450] registered an IC50 (class symbols) of less than 10 nM.
